Patent US20160340659A1, “ACTIN BINDING PEPTIDES AND COMPOSITIONS COMPRISING SAME FOR INHIBITING ANGIOGENESIS AND TREATING MEDICAL CONDITIONS ASSOCIATED WITH SAME” (YISSUM RESEARCH AND DEVELOPMENT COMPANY OF THE HEBREW …, priority 2014, published 2016)
“Also recorded” adds a separate entry of the source. Where no end group is shown, it is not given here.

Tests used:
actin [1] = target: T1, actin (Oryctolagus cuniculus, UniProt P68135); assay: Actin binding solid phase assay; settings: immobilized actin, 0-500 ng/100 μl well
Procedure: 96-well plates (MaxiSorp® flat-bottom 96-well plate, Fisher Scientific Inc., Fair Lawn, N.J.) were coated with 500 ng actin in 100 μl carbonate-bicarbonate buffer (pH 9.5) for 1 h at 37° C. The plate was washed once with TBS and then blocked with 3% BSA in 200 μl TBS buffer at 37° C., for 1 h. Wells were then washed once with 250 μl TBS. trT2-49, trT2-49m or each of the 29 peptides were added at 1:2 dilutions in 100 μl TBS, starting from 500 ng/well, incubated for 1 h at 37° C. and then washed three times with TBS containing 0.1% Tween-20 (TBST). Each well was then treated with 100 μl rabbit anti-trT2-49 diluted 1:500 in TBS and incubated for 1 h at 37° C. The wells were washed three times with TBST and then incubated with 100 μl goat anti-rabbit IgG-HRP (Jackson ImmunoResearch, West Grove, Pa.) diluted 1:10,000 in TBS, for 1 h at 37° C. Wells were then washed twice with TBST, and once with TBS before 100 μl substrate (1-step Ultra TMB-ELISA, Pierce, Fisher Scientific Inc.) were added. Absorbance at 655 nm was measured 10 min thereafter using a Power Wave 200 Microplate Scanning Spectrophotometer (Bio-Tek Instrument, Winooski, Vt.). Affinity was evaluated by double reciprocal plotting.

actin [2] = target: T1, actin; assay: Surface plasmon resonance (BIAcore) of actin binding; settings: actin on CM5 chip, 25° C.
Procedure: SPR was performed on a BIAcore 3000 instrument (BIAcore, Uppsala, Sweden). Actin was diluted in 100 mM CH3COONa pH 4.6 to a final concentration of 20 μg/ml (200 μl total) resulting in ˜1 ng immobilized actin on a CM5 BIAcore sensor chip (GE Healthcare Bio-Sciences AB) using the standard BIAcore amine coupling chemistry protocol. The CM5 chip allows four separate flow cells to be operated in the BIAcore 3000 instrument used in these experiments. Coupling is achieved by activating the surface of the sensor chips with equal volumes of 50 mM N-hydroxysuccimide (NHS)/200 mM Nethyl-N-(3-[…])-carboiimide (EDC) (BIAcore, AB, Uppsala, Sweden) to form activated carboxyl groups. An actin solution […] was run over the chip for 5 min at a rate of 10 μl/min, allowing the amine groups on the protein to react with the activated esters. In the final stage of immobilization, the surface was blocked by 1M ethanol amine, pH 8.0. The binding assay was performed by injecting the hRNASET2, trT2-49, trT2-49m or peptides solutions in running buffer (HBS—10 mM Hepes, 150 mM Sodium Chloride, 3 mM EDTA, 0.005% Polysorbate 20) at 5 different concentrations at a flow rate of 10 μl/min at 25° C. Injections were performed simultaneously over all four channels and blank surface (a plain dextran matrix, channel 1) was used as control. The net signal was obtained by subtracting the blank signal from the signal of the immobilized surface. The association phase for protein or peptides binding to actin was followed for 4 min, and dissociation phases were monitored for 3 min. Surface regeneration between consecutive binding cycles included a 1 min injection of 1 mM NaOH. The response was monitored as a function of time (sensorgram) at 25° C. Multi-concentration data were globally fit using BIA evaluation 3.2 software.
The strength of a two molecule interaction is characterized by the equilibrium dissociation (binding) constant KD=[P][L]/[PL], where [P] is the concentration of free protein (or peptide), [L] the concentration of ligand and [PL] the concentration of the complex. […]

HUVEC = HUVEC tube formation assay on Matrigel; assay type: cell-based, human; settings: peptides at 2 μM, compared to Control; for inhibition of VEGF-induced tube formation: 1 μg/ml VEGF; for inhibition of angiogenin-induced tube formation: 1 μg/ml angiogenin
Procedure: FIGS. 6A-6D illustrate in-vitro inhibition of angiogenesis in the HUVEC model by T2 peptides. HUVEC cells plated on Matrigel™ were exposed to 2 μM of T2 peptides A103-Q159 (SEQ ID NO: 60), K108-K133 (SEQ ID NO: 57) or K108-L123 (SEQ ID NO: 67), in addition to 1 μg/ml of angiogenin or VEGF as the angiogenic agent, as indicated. Control wells received PBS. FIG. 6B-Results were assessed by imaging software, and quantified, and expressed relative to tube formation with angiogenin or VEGF alone (100%) Column 1=angiogenin, column 2=angiogenin+SEQ ID NO: 60, column 3=angiogenin+SEQ ID NO: 57, column 4=angiogenin+[…], Column 5=VEGF, column 6=VEGF+SEQ ID NO: 60, column 7=VEGF+SEQ ID NO: 57, column 8=VEGF+[…]. FIGS. 6C and 6D illustrate the inhibitory effect of truncated human T2 polypeptide trT2-49m (SEQ ID NO: 129) on angiogenin and VEGF induced HUVEC tube formation. Note the significant inhibition of HUVEC tube formation by all of the T2 peptides assayed, and in particular, K108-K133 (SEQ ID NO: 57);
HUVEC (CC-2519)(fresh or commercially provided) are maintained in M199 rrrediurn supplemented with 20% FCS, 1% glutamine, 1% antibiotic-antimycotic solution, ECGF, and heparin, plated in a 96-well plate (14×10^3 cells/well) previously coated with growth factor-depleted Matrigel™ (BD Biosciences), in M199 medium containing 5% FCS and 0.005% ECGF. The wells are supplemented with candidate T2 RNase peptides or PBS, and angiogenic growth factors (1 μg/ml angiogenin, bFGF or VEGF) to a final volume of 120 pl. Plates are incubated (overnight), photographed and the extent of tube formation (angiogenesis) assessed.

[3] = test system: chick Chorio-Allantoic Membrane (CAM); assay: Ex ovo CAM angiogenesis assay; assay type: in vivo, chicken; settings: 3 μg on paper disk daily for four days from day 8; compared to PBS control
Procedure: In this assay, in-vivo angiogenesis is assessed on live chick embryos grown in petri dishes. Fertilized eggs are cracked into a petri dish after a few (e.g. 3) days incubation at appropriate temperature (e.g. 37° C.) and humidity. In the following days, the embryos developed a vascular network, which can then easily be exposed to any treatment or combination of treatments, for example, via delivery onto absorbent disks placed on/about the developing vascular regions. Angiogenesis is scored by periodically (e.g. 1×/day, 2×/day, 1×/2 days, 1×/4 days, etc) counting the number of blood vessels around the disk.
Fertilized chicken eggs were incubated horizontally at 37° C. and humidity of 60-62% and cracked into Petri dishes at embryonic day 4. Incubation was continued under the same conditions. […] Treatment was given every day for four days, then, the number of blood vessels around the treated disks was counted.

Row | Ka × 10^3 (actin [2]) | Sequence | actin binding in solid-phase assay (actin [1]; listed as A103-Q159) | kon (actin [2]; read-out: Ka × 10^3) [M⁻¹ s⁻¹] | inhibition of VEGF-induced tube formation (HUVEC) [%] | inhibition of angiogenin-induced tube formation (HUVEC) [%] | inhibition of angiogenesis (number of blood vessels around disk) [3] | actin binding in solid-phase assay (actin [1]; listed as K108-K133)
1 |  | ALNSQKKYFGRSLELYRELDLNSVLLKLGIKPSINYYQVADFKDALARVYGVIPKIQ [SEQ ID NO: 60] | most effective actin binding peptides amongst the 29 candidate peptides; also recorded: effective and concentration-dependent binding of actin | 1060 | ~40 | ~40 | effective in inhibiting angiogenesis | 
2 | 3.32 ×10^3 1/Ms | KKYFGRSLELYRELDLNSVLLKLGIK [SEQ ID NO: 57, 26-amino acid peptide representing amino acids 108-133 of RNASET2] |  |  | ~75 | ~50 | effective in inhibiting angiogenesis | most effective actin binding peptides amongst the 29 candidate peptides; also recorded: effective and concentration-dependent binding of actin
